# Measured values taken from patent US10077261B2, “Imidazolin-5-one derivative useful as FASN inhibitors for the treatment of cancer” (Janssen Pharmaceutica NV, priority 2012, dated 2018).
# Key:
# A2780 ovarian cells [1] = experiment: A2780 ovarian cell proliferation assay in lipid reduced medium, with palmitate (MTT); format: cell-based; details: Homo sapiens, A2780, 96 h; read-out: pIC50 A2780 Ovarian Cell, With Palmitate (converted)
# Summary of the method: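 Seeded cells were switched next day to lipid-reduced serum, exposed to compound and 25 μM palmitate complexed with fatty-acid-free BSA, and incubated 96 h. Proliferation was then determined by MTT absorbance at 544 nm, with a best-fit curve of signal against concentration.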
# [2] = target: Fatty Acid Synthase Keto-reductase Domain (FASN KR) (Homo sapiens, UniProt P49327); experiment: Fatty Acid Synthase keto-reductase domain (FASN KR) inhibition, NADPH oxidation at 340 nm
# Description: After 20 minutes incubation at room temperature the plate was measured again (T2).
# The decrease in absorbance was calculated as (Absorbance before incubation T1)−(Absorbance following incubation T2).
# A plot of Controlmin versus test compound concentration was fitted to a 4-parameter logistic curve using a non-linear least squares regression method.
# [3] = system: LNCaP-Vancouver prostate cells; experiment: In vitro LNCaP Vancouver prostate cell proliferation assay in lipid reduced medium; format: cell-based; details: read-out: pIC50 LNCaP_Vancouver prostate cell (converted)
# Description: LNCaP-Vancouver prostate cells were obtained from the Vancouver Prostate Cancer Centre. Cells were maintained in RPMI-1640, 10% Fetal Calf Serum (FCS, Hyclone), 2 mM glutamine and 50 μg/ml Gentamicin.
# For the proliferation experiment 1500 LNCaP-Vancouver cells per well were seeded in a 384-well black with clear bottom plate (costar 3712BC) in 40 μl RPMI-1640, 10% Lipid reduced serum (LRS, Hyclone), 50 μg/ml Gentamicin and 2 mM Glutamine and incubated at 37° C., 5% CO2. The next day 10 μl of test compound/DMSO diluted in medium was added (3E-5M, 1E-5M, 3E-6M, 1E-6M, 3E-7M, 1E-7M, 3E-8M, 1E-8M final concentration). Compounds were tested in duplicate. After 96 h incubation at 37° C., 5% CO2 25 μl ATP-glow mix was added. The plate was incubated for 30 min at 37° C. and luminescence was measured with the Envision.
# Analysis: Determination of pIC50 Values
# pIC50 values were calculated as follows.
# where mLC and mHC are the means of the low control wells and high control wells on the plate, after manual exclusion of outliers. The relation between the % Controlmin values and concentration was fitted to a 4-parameter logistic curve using a non-linear least squares regression method to determine the pIC50 value. Outlying data points were excluded manually to get a correct fit. The pIC50 corresponds to −log 10(IC50), if the IC50 is expressed in molar units (http://www.ncbi.nlm.nih.gov/books/NBK91994). The IC50 parameter was always determined by non-linear regression, but one or more of the other parameters may have been held fixed on a relevant input value, such as 0 for the bottom values.
# For dose response curves with FASN inhibitors in LNCaP-Vancouver or PC-3M-Luc-C6 cells the curves bottom out around 30 to 40% of the control value. A standard fit PL2, forcing the lower bound to this level was used.
# Representative compounds of the present invention were tested according to the procedure as described in Biological Example 4a and 4b above, with results as listed in Table 9, below.
# A2780 ovarian cells [4] = experiment: A2780 ovarian cell proliferation assay in lipid reduced medium, without palmitate (MTT); format: cell-based; details: Homo sapiens, A2780, 96 h; read-out: pIC50 A2780 Ovarian Cell, Without Palmitate (converted)
# [5] = target: T1, hFASN enzyme (full length) (Homo sapiens, UniProt P49327); experiment: Fatty Acid Synthase (FASN) inhibition scintillation proximity assay; format: biochemical; details: for inhibition at 10 µM: read-out: Human FASN % inhibition @ 10 μM, 10 μM test compound; for IC50: read-out: Human FASN pIC50 (converted)
# T1 construct: 10 μL hFASN enzyme (full length, 300 ng, purified in house); made in house
# Summary of the method: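 Purified full-length hFASN (300 ng) converts ^3H-acetyl-CoA plus malonyl-CoA to ^3H-palmitate in 100 mM KH2PO4 pH 7.5, 1 mM DTT; compounds tested at 0.01–30 μM. Product captured on streptavidin imaging beads and read by LEADseeker at 610 nm after ≥24 h; 4-parameter logistic fit versus controls.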
# Fatty Acid Synthase Keto-reductase Domain (FASN KR), sequence (P49327 whole entry, the tested form may be a part): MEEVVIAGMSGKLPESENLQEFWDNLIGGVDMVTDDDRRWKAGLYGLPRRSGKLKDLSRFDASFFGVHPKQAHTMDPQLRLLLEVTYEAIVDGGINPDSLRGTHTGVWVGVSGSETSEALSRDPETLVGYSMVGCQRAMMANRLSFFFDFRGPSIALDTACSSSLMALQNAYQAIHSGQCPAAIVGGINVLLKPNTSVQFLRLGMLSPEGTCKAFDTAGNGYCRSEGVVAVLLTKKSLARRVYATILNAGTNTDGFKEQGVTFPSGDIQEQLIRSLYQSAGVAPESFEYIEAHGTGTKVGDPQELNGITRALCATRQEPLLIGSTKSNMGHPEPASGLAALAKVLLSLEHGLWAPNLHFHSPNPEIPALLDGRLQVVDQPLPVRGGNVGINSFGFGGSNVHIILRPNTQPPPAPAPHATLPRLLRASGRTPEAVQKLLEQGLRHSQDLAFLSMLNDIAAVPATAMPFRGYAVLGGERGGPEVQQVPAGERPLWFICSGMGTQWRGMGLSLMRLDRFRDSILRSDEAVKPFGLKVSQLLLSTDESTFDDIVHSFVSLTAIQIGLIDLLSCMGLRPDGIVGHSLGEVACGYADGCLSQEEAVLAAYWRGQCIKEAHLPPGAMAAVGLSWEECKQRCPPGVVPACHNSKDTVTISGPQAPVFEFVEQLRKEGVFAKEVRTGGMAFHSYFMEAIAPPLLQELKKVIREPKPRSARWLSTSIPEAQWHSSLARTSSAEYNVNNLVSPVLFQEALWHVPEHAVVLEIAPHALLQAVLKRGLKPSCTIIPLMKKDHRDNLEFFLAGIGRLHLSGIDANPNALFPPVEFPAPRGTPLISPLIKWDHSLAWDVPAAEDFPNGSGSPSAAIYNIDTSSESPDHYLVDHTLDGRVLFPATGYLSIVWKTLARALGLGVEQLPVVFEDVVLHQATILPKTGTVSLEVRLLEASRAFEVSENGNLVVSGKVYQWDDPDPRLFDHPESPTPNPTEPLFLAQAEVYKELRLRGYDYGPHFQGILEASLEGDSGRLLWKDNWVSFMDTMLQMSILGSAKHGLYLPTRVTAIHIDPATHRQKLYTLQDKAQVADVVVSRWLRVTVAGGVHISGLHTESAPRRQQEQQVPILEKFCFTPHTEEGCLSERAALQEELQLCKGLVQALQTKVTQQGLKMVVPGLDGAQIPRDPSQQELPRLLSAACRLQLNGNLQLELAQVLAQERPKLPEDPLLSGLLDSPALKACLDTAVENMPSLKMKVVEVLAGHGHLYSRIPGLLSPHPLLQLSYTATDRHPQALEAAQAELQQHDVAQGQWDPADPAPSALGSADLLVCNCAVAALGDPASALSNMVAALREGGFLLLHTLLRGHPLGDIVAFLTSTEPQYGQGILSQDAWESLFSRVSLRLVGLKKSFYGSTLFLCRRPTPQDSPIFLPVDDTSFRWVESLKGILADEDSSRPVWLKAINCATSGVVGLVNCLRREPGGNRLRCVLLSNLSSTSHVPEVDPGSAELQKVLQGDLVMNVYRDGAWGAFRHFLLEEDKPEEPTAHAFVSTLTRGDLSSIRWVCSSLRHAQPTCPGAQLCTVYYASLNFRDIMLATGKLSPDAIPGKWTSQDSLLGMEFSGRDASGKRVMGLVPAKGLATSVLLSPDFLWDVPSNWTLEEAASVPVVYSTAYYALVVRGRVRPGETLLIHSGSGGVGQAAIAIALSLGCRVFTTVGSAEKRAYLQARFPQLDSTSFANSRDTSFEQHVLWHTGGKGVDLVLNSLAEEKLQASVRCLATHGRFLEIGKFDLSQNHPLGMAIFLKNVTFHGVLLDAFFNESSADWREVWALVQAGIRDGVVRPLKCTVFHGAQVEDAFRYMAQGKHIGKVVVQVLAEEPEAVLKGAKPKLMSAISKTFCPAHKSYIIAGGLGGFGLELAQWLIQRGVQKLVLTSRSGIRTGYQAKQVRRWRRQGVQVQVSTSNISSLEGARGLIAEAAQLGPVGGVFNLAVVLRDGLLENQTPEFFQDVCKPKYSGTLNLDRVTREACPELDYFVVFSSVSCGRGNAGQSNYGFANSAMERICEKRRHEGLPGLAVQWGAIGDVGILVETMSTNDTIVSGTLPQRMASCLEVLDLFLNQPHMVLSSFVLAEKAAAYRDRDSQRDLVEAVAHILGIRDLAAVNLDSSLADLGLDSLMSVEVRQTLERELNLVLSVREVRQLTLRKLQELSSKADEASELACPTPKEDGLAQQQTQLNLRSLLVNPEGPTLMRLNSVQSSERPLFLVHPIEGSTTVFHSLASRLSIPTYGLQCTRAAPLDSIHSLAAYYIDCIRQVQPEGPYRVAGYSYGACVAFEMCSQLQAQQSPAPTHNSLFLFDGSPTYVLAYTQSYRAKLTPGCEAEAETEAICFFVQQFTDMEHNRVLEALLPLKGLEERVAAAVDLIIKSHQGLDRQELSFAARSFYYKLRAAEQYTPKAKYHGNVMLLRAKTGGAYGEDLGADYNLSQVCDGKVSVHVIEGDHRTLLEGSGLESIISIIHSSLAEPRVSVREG
# T1 sequence (P49327 whole entry): as the sequence (P49327 whole entry, the tested form may be a part) above
IC50 (A2780 ovarian cells [1]) [nM],IC50 [2] [nM],IC50 [3] [nM],IC50 (A2780 ovarian cells [4]) [nM],inhibition at 10 µM [5] [%],IC50 [5] [nM],Structure (SMILES)
> 10000,363,7080,6030,99,126,"Cc1sc2ccc(-c3ccc(C4=NC5(CC5)C(=O)N4C[C@@H]4CCN(C(=O)C5CC5)C4)cc3F)cc2c1C [compound 406, 6-{[(3R)-1-(Cyclopropylcarbonyl)pyrrolidin-3-yl]methyl}-5-[4-(2,3-dimethyl-1-benzothiophen-5-yl)-3-fluorophenyl]-4,6-diazaspiro[2.4]hept-4-en-7-one]"
> 10000,513,1320,417,96,240,"O=C(C1CC1)N1CC[C@@H](CN2C(=O)C3(CC3)N=C2c2ccc(-c3cccc4[nH]ncc34)cn2)C1 [compound 429, 6-{[(3R)-1-(Cyclopropylcarbonyl)pyrrolidin-3-yl]methyl}-5-[5-(1H-indazol-4-yl)pyridin-2-yl]-4,6-diazaspiro[2.4]hept-4-en-7-one]"
> 10000,1230,3470,~933,91,263,"Cc1cc(C2=NC3(CC3)C(=O)N2CC2CN(C(=O)C3CC3)C2)ccc1-c1ccc2[nH]ccc2c1 [compound 435, 6-{[1-(Cyclopropylcarbonyl)azetidin-3-yl]methyl}-5-[4-(1H-indol-5-yl)-3-methylphenyl]-4,6-diazaspiro[2.4]hept-4-en-7-one]"
> 10000,200,525,182,99,151,"Cn1nc(C2CC2)c2cc(-c3ccc(C4=NC5(CC5)C(=O)N4C[C@@H]4CCN(C(=O)C5CC5)C4)cc3)ccc21 [compound 465, 6-{[(3R)-1-(Cyclopropylcarbonyl)pyrrolidin-3-yl]methyl}-5-[4-(3-cyclopropyl-1-methyl-1H-indazol-5-yl)phenyl]-4,6-diazaspiro[2.4]hept-4-en-7-one]"
> 10000,1350,3800,~2690,87,479,"O=C(C1CC1)N1CC[C@@H](CN2C(=O)C3(CC3)N=C2c2ccc(-c3ccc4cnc(Cl)cc4c3)cc2)C1 [compound 466, 5-[4-(3-Chloroisoquinolin-6-yl)phenyl]-6-{[(3R)-1-(cyclopropylcarbonyl)pyrrolidin-3-yl]methyl}-4,6-diazaspiro[2.4]hept-4-en-7-one]"
> 10000,331,1290,417,99,182,"CCC(=O)N1CC(CN2C(=O)C3(CC3)N=C2c2ccc(-c3ccc4c(cnn4C)c3)cc2C)C1 [compound 471, 5-[2-Methyl-4-(1-methyl-1H-indazol-5-yl)phenyl]-6-[(1-propanoylazetidin-3-yl)methyl]-4,6-diazaspiro[2.4]hept-4-en-7-one]"
> 10000,525,2190,~275,95,269,"Cc1cc(-c2ccc3c(cnn3C)c2)ccc1C1=NC2(CC2)C(=O)N1CC1CN(C(=O)C(C)C)C1 [compound 473, 5-[2-Methyl-4-(1-methyl-1H-indazol-5-yl)phenyl]-6-{[1-(2-methylpropanoyl)azetidin-3-yl]methyl}-4,6-diazaspiro[2.4]hept-4-en-7-one]"
> 10000,617,3720,~2040,90,263,"Cc1cc(C2=NC3(CC3)C(=O)N2C[C@@H]2CCN(C(=O)C3CC3)C2)ccc1-c1ccc2oc(C#N)cc2c1 [compound 476, 5-[4-(6-{[(3R)-1-(Cyclopropylcarbonyl)pyrrolidin-3-yl]methyl}-7-oxo-4,6-diazaspiro[2.4]hept-4-en-5-yl)-2-methylphenyl]-1-benzofuran-2-carbonitrile]"
> 10000,525,1150,~257,97,155,"Cc1cc(-c2ccc3c(cnn3C)c2)ccc1C1=NC2(CC2)C(=O)N1CC1CN(C(=O)C2(CO)CC2)C1 [compound 480, 6-[(1-{[1-(Hydroxymethyl)cyclopropyl]carbonyl}azetidin-3-yl)methyl]-5-[2-methyl-4-(1-methyl-1H-indazol-5-yl)phenyl]-4,6-diazaspiro[2.4]hept-4-en-7-one]"
> 10000,363,1050,93.3,81,331,"Cn1ncc2cc(-c3ccc(C4=NC5(CC5)C(=O)N4C[C@@H]4CCN(C(=O)C5COC5)C4)cc3)ccc21 [compound 490, 5-[4-(1-Methyl-1H-indazol-5-yl)phenyl]-6-{[(3R)-1-(oxetan-3-ylcarbonyl)pyrrolidin-3-yl]methyl}-4,6-diazaspiro[2.4]hept-4-en-7-one]"
> 10000,3090,3980,1000,87,676,"O=C1CCc2cc(-c3ccc(C4=NC5(CC5)C(=O)N4C[C@@H]4CCN(C(=O)C5CC5)C4)cc3)ccc2N1 [compound 512, 6-[4-(6-{[(3R)-1-(Cyclopropylcarbonyl)pyrrolidin-3-yl]methyl}-7-oxo-4,6-diazaspiro[2.4]hept-4-en-5-yl)phenyl]-3,4-dihydroquinolin-2(1H)-one]"
> 10000,2950,5130,776,97,263,"Cn1nc(CO)c2cc(-c3ccc(C4=NC5(CC5)C(=O)N4CC4CN(C(=O)C5CC5)C4)cc3)ccc21 [compound 530, 6-{[1-(Cyclopropylcarbonyl)azetidin-3-yl]methyl}-5-{4-[3-(hydroxymethyl)-1-methyl-1H-indazol-5-yl]phenyl}-4,6-diazaspiro[2.4]hept-4-en-7-one]"
> 10000,479,2000,141,97,145,"O=C(C1CC1)N1CC(CN2C(=O)C3(CC3)N=C2c2ccc(-c3ccc4cncnc4c3)cc2)C1 [compound 543, 6-{[1-(Cyclopropylcarbonyl)azetidin-3-yl]methyl}-5-(4-quinazolin-7-ylphenyl)-4,6-diazaspiro[2.4]hept-4-en-7-one]"
5890,676,1000,~174,98,178,"Cn1ccc(-c2ccc(-c3ccc(C4=NC5(CC5)C(=O)N4CC4CN(C(=O)C5CC5)C4)c(F)c3)cc2)n1 [compound 547, 6-{[1-(Cyclopropylcarbonyl)azetidin-3-yl]methyl}-5-[3-fluoro-4′-(1-methyl-1H-pyrazol-3-yl)biphenyl-4-yl]-4,6-diazaspiro[2.4]hept-4-en-7-one]"
6170,166,1100,~295,88,162,"Cc1cc2cc(-c3ccc(C4=NC5(CC5)C(=O)N4CC4CN(C(=O)C5CC5)C4)c(F)c3)ccc2s1 [compound 548, 6-{[1-(Cyclopropylcarbonyl)azetidin-3-yl]methyl}-5-[2-fluoro-4-(2-methyl-1-benzothiophen-5-yl)phenyl]-4,6-diazaspiro[2.4]hept-4-en-7-one]"
4790,427,1380,200,97,372,"COc1nn(C)c2ccc(-c3ccc(C4=NC5(CC5)C(=O)N4C[C@@H]4CCN(C(=O)C5CC5)C4)cc3)cc12 [compound 557, 6-{[(3R)-1-(Cyclopropylcarbonyl)pyrrolidin-3-yl]methyl}-5-[4-(3-methoxy-1-methyl-1H-indazol-5-yl)phenyl]-4,6-diazaspiro[2.4]hept-4-en-7-one]"
